Tests used:
[1] = tested on: streptozotocin-induced diabetic rats; experiment: effect on body weight; type: in vivo, Wistar rats; settings: for Change in Body Weight, After Treatment: 28 days
Description: The antidiabetic activity of the synthesized compound 10d was evaluated using a streptozotocin-induced diabetic rats model.
Male Wistar rats weighing 150 to 230 gm were used for the study which were housed in polyacrylic cages (no more than six animals per cage) with dimensions of 38 × 23 × 10 cm and maintained under standard laboratory conditions with a dark/light cycle of 14 h of dark and 10 h of light at a temperature of 25 °C. The animals were provided with a standard diet (dry pellet) and water ad libitum. Before the start of the experimental procedures, the rats were acclimatized to laboratory conditions for 10 days. All the experiments were approved and performed as per the guidelines of the Departmental Research Ethics Committee under letter No. DREC/050 [49].
(§1) Non-insulin-dependent diabetes mellitus was induced in fasted rats weighing 150–230 gm using a single dose of streptozotocin (STZ) at a dose of 60 mg/kg intraperitoneally after 15 min of the administration of nicotinamide at a 120 mg/kg dose i.p. Nicotinamide was prepared in normal saline while in citrate buffer (pH 4.5), STZ was prepared. After the induction of diabetes, the increase in the plasma glucose level was measured at 72 h and then measured on the 7th day to confirm hyperglycemia. For the diagnosis of diabetes, the threshold value of the fasting plasma glucose level was considered to be more than 126 mg/dl. For the study, only the animals with permanent NIIDM were utilized.
(§2) The animals were classified into 5 groups with 6 animals in each group (n = 6). Group I comprised of normal control rats which were daily administered drinking water only; group II served as diabetic control rats (disease group); group III served as the positive control and were administered 0.5 mg/kg of the standard drug glibenclamide; and group IV and V served as the test group rats and were administered the test compound 10d at 10 mg/kg and 20 mg/kg, respectively, for twenty-eight days. The fasting glucose concentration was measured on the 0, 7th, 14th, and 28th day of the administration of the extract. During the experimental tenure, the weights of the rats were determined daily and the mean change was recorded.

[2] = tested on: streptozotocin-induced diabetic rats; experiment: liver and renal serum biomarkers; type: in vivo, Wistar rats; settings: 28th day
Description: as §1, §2
The animals were euthanized (sacrificed) via cervical dislocation on the 28th day to observe the biochemical parameters. The parameters studied were triglyceride (TGL), cholesterol, low-density lipoprotein, and high-density lipoprotein (LDL and HDL). The Minias Globe Diagnostic kits were used for cholesterol and TGL. Semi-autoanalyzers were used for the analysis. The serum samples from the rats were also checked for alanine aminotransferase (ALT), aspartate aminotransferase (AST), lactate dehydrogenase (LDH), serum alkaline phosphatase (ALP), and creatinine and urea levels utilizing commercially available kits of Crest Biosystems. The statistical analysis was also performed as per the previous procedure.

human DPP-4 enzyme = target: T1, human DPP-4 enzyme (Homo sapiens, UniProt P27487); experiment: DPP-4 activity bioassay; type: biochemical
T1 construct: purchased
T1 sequence (P27487 whole entry): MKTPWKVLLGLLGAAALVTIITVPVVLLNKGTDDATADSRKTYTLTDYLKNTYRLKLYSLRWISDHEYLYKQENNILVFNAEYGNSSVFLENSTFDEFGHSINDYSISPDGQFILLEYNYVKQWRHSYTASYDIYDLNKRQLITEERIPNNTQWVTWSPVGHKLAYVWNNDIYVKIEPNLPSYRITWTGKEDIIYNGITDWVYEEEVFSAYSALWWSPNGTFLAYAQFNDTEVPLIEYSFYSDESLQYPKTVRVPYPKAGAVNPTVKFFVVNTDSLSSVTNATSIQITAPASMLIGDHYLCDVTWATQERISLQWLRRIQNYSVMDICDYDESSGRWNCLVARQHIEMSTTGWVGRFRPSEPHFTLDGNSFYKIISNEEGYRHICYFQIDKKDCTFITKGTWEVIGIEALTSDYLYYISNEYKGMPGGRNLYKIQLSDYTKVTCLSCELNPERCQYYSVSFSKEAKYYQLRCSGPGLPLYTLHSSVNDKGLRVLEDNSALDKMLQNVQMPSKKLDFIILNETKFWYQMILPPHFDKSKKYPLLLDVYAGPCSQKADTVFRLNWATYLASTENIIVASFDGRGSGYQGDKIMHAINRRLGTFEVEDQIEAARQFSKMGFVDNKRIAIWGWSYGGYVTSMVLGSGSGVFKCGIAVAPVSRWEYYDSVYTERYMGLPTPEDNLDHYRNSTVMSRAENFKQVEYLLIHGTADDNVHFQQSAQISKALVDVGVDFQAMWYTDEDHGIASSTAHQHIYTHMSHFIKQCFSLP
Description: All succinimides and thiazolidinedione hybrids were tested for DPP-4 inhibitory effects on a human DPP-4 enzyme using the methodology published before. The DPP-4 kit was used to measure the inhibition. L-thiazolidine (P32/98) was included as a reference. The hybrids and DPP-4 enzyme were both adulterated 1/50 in the assay buffer (PH = 7.4, 25 mM Tris). Following that, a microplate well was filled with 5 μL of assay buffer, 3 μL of enzyme solution, and 2 μL of adequately diluted test chemical solutions. After a 12-min incubation period at 37.5 °C, a diluted substrate solution of 25 μL was added into the solution. A multi-mode reader was used to assess the fluorescence. […] PRISM5 was used to calculate the IC50 values and compare the inhibition ratio to the control without the inhibitor.

rats = experiment: acute oral toxicity study, limit test (OECD up and down procedure); type: in vivo
Description: For the acute toxicity study, a limit test on the laboratory animals at 2000 mg/kg body weight was selected and the up and down procedure (UDP) was followed as per the guidelines of the Organization for Economic Cooperation and Development (OECD). The purpose was to evaluate the dose necessary to perform various pharmacological activities.
Healthy young adult male rats of about 8 to 12 weeks old were selected for dosing.
The rats were randomly selected, marked for an individual identification, and retained in their cages for at least 5 days before dosing to acclimatize to the laboratory conditions. Prior to dosing, the animals were fasted and they were refrained from food, not water, for 16–18 h.
After the fasting period, the weight of each animal was determined and according to the body weight of the animals, the dose at 2000 mg/kg body weight was calculated for each animal. A unique dose of the studied compound 10d was administered to the animals for the UDP study by the oral route using an intragastric cannula 16 G, and it was planned to dose the five animals on the same day. […] The onset time, toxic reactions, and length of the recovery period determined the duration of the observation and when considered necessary, may be extended. […] Individual observations were recorded and maintained systematically for each animal. […]

CC(C)(C=C1SC(=O)N(C(=O)CN2CCOCC2)C1=O)C1CC(=O)N(Cc2ccccc2)C1=O (centres unmarked) [10d]
Change in Body Weight, After Induction ([1]; 10mg (10 mg/kg) group): 154.22 ± 3.62 gm
Change in Body Weight, Before Induction ([1]; 10mg (10 mg/kg) group): 191.23 ± 1.50 ^ns gm
Change in Body Weight, After Treatment ([1]; 10mg (10 mg/kg) group): 182.43 ± 5.76 gm
Change in Body Weight, After Induction ([1]; 20mg (20 mg/kg) group): 171.60 ± 1.90 ^ns gm
Change in Body Weight, Before Induction ([1]; 20mg (20 mg/kg) group): 204.66 ± 3.60 gm
Change in Body Weight, After Treatment ([1]; 20mg (20 mg/kg) group): 198.19 ± 4.66 gm
ALP ([2]; 10mg (10 mg/kg)): 184.43 ± 3.83 U/L
ALT ([2]; 10mg (10 mg/kg)): 136.80 ± 2.15 U/L
AST ([2]; 10mg (10 mg/kg)): 123.40 ± 3.70 U/L
Creatinine ([2]; 10mg (10 mg/kg)): 0.51 ± 0.57 ^ns mg/dl
LDH ([2]; 10mg (10 mg/kg)): 930.11 ± 4.26 U/L
Urea ([2]; 10mg (10 mg/kg)): 75.26 ± 2.44 mg/dL
ALP ([2]; 20mg (20 mg/kg)): 122.80 ± 2.00 U/L
ALT ([2]; 20mg (20 mg/kg)): 60.42 ± 2.20 U/L
AST ([2]; 20mg (20 mg/kg)): 94.32 ± 2.30 U/L
Creatinine ([2]; 20mg (20 mg/kg)): 0.42 ± 0.31 ^ns mg/dl
LDH ([2]; 20mg (20 mg/kg)): 850.53 ± 4.41 U/L
Urea ([2]; 20mg (20 mg/kg)): 51.53 ± 2.23 mg/dL
inhibition at 31.25 µM (human DPP-4 enzyme; 31.25 µM, read-out: DPP4 (inhibition) (converted)): 71.4%
inhibition at 62.5 µM (human DPP-4 enzyme; 62.5 µM, read-out: DPP4 (inhibition) (converted)): 76.5%
inhibition at 125 µM (human DPP-4 enzyme; 125 µM, read-out: DPP4 (inhibition) (converted)): 81.4%
inhibition at 250 µM (human DPP-4 enzyme; 250 µM, read-out: DPP4 (inhibition) (converted)): 85.3%
inhibition at 500 µM (human DPP-4 enzyme; 500 µM, read-out: DPP4 (inhibition)): 91.4 ± 1.49%
IC50 (human DPP-4 enzyme; read-out: IC50 DPP4): 4.22 µM
acute toxicity observation (behavior, mortality) (rats; limit dose 2000 mg/kg body weight, observed 14 days): no abnormal changes in their behavior and no mortality
LD50 class as per OECD guidelines (rats; maximum dose 2000 mg/kg): class IV

From article PMC9918900, “New Succinimide–Thiazolidinedione Hybrids as Multitarget Antidiabetic Agents: Design, Synthesis, Bioevaluation, and Molecular Modelling Studies” (Molecules, 2023)
